In brackets after ≈: the same amount, converted by molar mass.
Tests used:
[1] = system: Escherichia coli (E. coli) BAS849; assay: Antibacterial activity, microbroth dilution MIC (Table 1); format: cell-based; details: microbroth dilution, super sensitive Gram-negative E. coli BAS849, read-out: MIC, BAS849
Outline: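 Microbroth dilution was used. MIC, in μg/mL, is the lowest drug concentration preventing macroscopically visible growth under the test conditions.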

[2] = system: Staphylococcus aureus (S. aureus) 29213; assay: as above; format: cell-based; details: microbroth dilution, Gram-positive S. aureus 29213, read-out: MIC, 29213
Outline: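 Potency is reported as minimum inhibitory concentration in μg/mL, determined by broth microdilution as the lowest level of compound that stops growth visible to the eye.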

E. coli 25922 = assay: as above; format: cell-based, Escherichia coli; details: Escherichia coli; microbroth dilution; control Gram-negative E. coli 25922 strain; read-out: MIC, 25922
Outline: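 In a microbroth dilution test, the minimum inhibitory concentration was defined as the lowest compound level preventing growth seen by eye, and was given in μg/mL.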

E. coli LZ3111 = assay: Antibacterial activity, MIC, quinolone resistant strain (Table 2); format: cell-based; details: Escherichia coli, LZ3111, read-out: MIC LZ3111
Outline: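 MIC values (μg/mL) came from a microbroth dilution assay, scored as the lowest drug concentration at which no growth was visible by eye.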

[3] = system: Acinetobacter baumannii (A. baumannii) BAA747; assay: Antibacterial activity, MIC (Table 4); format: cell-based; details: A. baumannii BAA747, read-out: MIC, BAA747
Excerpt: (§1) The antibacterial activity from a microbroth dilution method may be presented as the minimum inhibitory concentration (MIC in μg/mL). The MIC value is the lowest concentration of drug which prevents macroscopically visible growth under test conditions.
(§2) Antibacterial activity of test compounds against the Gram-negative Acinetobacter baumannii (A. baumannii) BAA747 and Klebsiella pneumoniae (K. pneumoniae) 35657 bacterium and the resistant A. baumannii MXX2240 and K. pneumoniae MXX1232 strains are shown in Table 4. The MMX strains are multi-drug resistant clinical isolates.

[4] = system: Klebsiella pneumoniae (K. pneumoniae) 35657; assay: Antibacterial activity, MIC (Table 4); format: cell-based; details: K. pneumoniae 35657, read-out: MIC, 35657
Excerpt: as §1, §2

A. baumannii MXX2240 = assay: Antibacterial activity, MIC, resistant strain (Table 4); format: cell-based; details: Acinetobacter baumannii, MXX2240; resistant A. baumannii MMX2240, multi-drug resistant clinical isolate; read-out: MIC, MMX2240
Excerpt: as §1, §2

K. pneumoniae MXX1232 = assay: as above; format: cell-based; details: Klebsiella pneumoniae, MXX1232; resistant K. pneumoniae MMX1232, multi-drug resistant clinical isolate; read-out: MIC, MMX1232
Excerpt: as §1, §2

[5] = system: Pseudomonas aeruginosa (P. aeruginosa) 27853; assay: Antibacterial activity, MIC (Table 5); format: cell-based; details: P. aeruginosa 27853, read-out: MIC, 27853
Excerpt: as §1
Antibacterial activity of test compounds against the Gram-negative bacterium Pseudomonas aeruginosa (P. aeruginosa) 27853 is shown in Table 5.

Compound	MIC [1]	MIC [2]	MIC (E. coli 25922)	MIC (E. coli LZ3111)	MIC [3]	MIC [4]	MIC (A. baumannii MXX2240)	MIC (K. pneumoniae MXX1232)	MIC [5]
CCc1c(-c2ccc3c(c2)cc2n3C[C@H](CN)[C@@H]2NC)[nH]c(=O)c(C(=O)O)c1O.Cl.Cl (relative stereo) [Cpd 421, 6-(cis-2-(aminomethyl)-1-(methylamino)-2,3-dihydro-1H-pyrrolo[1,2-a]indol-7-yl)-5-ethyl-4-hydroxy-2-oxo-1,2-dihydropyridine-3-carboxylic acid bis-hydrochloride]	1 to 3.5 µg/mL	12.5 to 150 µg/mL	3.5 to 12.5 µg/mL	12.5 to 150 µg/mL	12.5 to 150 µg/mL	12.5 to 150 µg/mL	12.5 to 150 µg/mL	12.5 to 150 µg/mL	12.5 to 150 µg/mL
CCc1c(-c2ccc3c(c2)cc2n3C[C@H](N)C[C@H]2NC)[nH]c(=O)c(C(=O)O)c1O.Cl.Cl (relative stereo) [Cpd 422, 6-(trans-7-amino-9-(methylamino)-6,7,8,9-tetrahydropyrido[1,2-a]indol-2-yl)-5-ethyl-4-hydroxy-2-oxo-1,2-dihydropyridine-3-carboxylic acid bis-hydrochloride]	1 to 3.5 µg/mL	12.5 to 150 µg/mL	12.5 to 150 µg/mL	12.5 to 150 µg/mL	12.5 to 150 µg/mL	3.5 to 12.5 µg/mL	12.5 to 150 µg/mL	12.5 to 150 µg/mL	12.5 to 150 µg/mL
CCc1c(-c2cn(C)c3ccccc23)[nH]c(=O)c(C(=O)O)c1O [Cpd 14, 5-ethyl-4-hydroxy-6-(1-methyl-1H-indol-3-yl)-2-oxo-1,2-dihydropyridine-3-carboxylic acid]	1 to 3.5 µg/mL (≈ 3.2 to 11.2 µM)	3.5 to 12.5 µg/mL (≈ 11.2 to 40 µM)	12.5 to 150 µg/mL (≈ 40 to 480 µM)	12.5 to 150 µg/mL (≈ 40 to 480 µM)	12.5 to 150 µg/mL (≈ 40 to 480 µM)	12.5 to 150 µg/mL (≈ 40 to 480 µM)	12.5 to 150 µg/mL (≈ 40 to 480 µM)	12.5 to 150 µg/mL (≈ 40 to 480 µM)	12.5 to 150 µg/mL (≈ 40 to 480 µM)
CCc1cc(C(=O)O)c(=O)[nH]c1-c1cnc2c(ccn2C)c1 [Cpd 31, 5-ethyl-6-(1-methyl-1H-pyrrolo[2,3-b]pyridin-5-yl)-2-oxo-1,2-dihydropyridine-3-carboxylic acid]	1 to 3.5 µg/mL (≈ 3.36 to 11.8 µM)	12.5 to 150 µg/mL (≈ 42 to 505 µM)	12.5 to 150 µg/mL (≈ 42 to 505 µM)	12.5 to 150 µg/mL (≈ 42 to 505 µM)	12.5 to 150 µg/mL (≈ 42 to 505 µM)	12.5 to 150 µg/mL (≈ 42 to 505 µM)	12.5 to 150 µg/mL (≈ 42 to 505 µM)	12.5 to 150 µg/mL (≈ 42 to 505 µM)	12.5 to 150 µg/mL (≈ 42 to 505 µM)
CCc1cc(C(=O)O)c(=O)[nH]c1-c1ccc2ncnn2c1.Cl [Cpd 49, 6-([1,2,4]triazolo[1,5-a]pyridin-6-yl)-5-ethyl-2-oxo-1,2-dihydropyridine-3-carboxylic acid hydrochloride]	12.5 to 150 µg/mL	12.5 to 150 µg/mL	12.5 to 150 µg/mL	12.5 to 150 µg/mL	12.5 to 150 µg/mL	12.5 to 150 µg/mL	12.5 to 150 µg/mL	12.5 to 150 µg/mL	12.5 to 150 µg/mL
CCc1cc(C(=O)O)c(=O)[nH]c1-c1ccc2nncn2c1.Cl [Cpd 50, 6-([1,2,4]triazolo[4,3-a]pyridin-6-yl)-5-ethyl-2-oxo-1,2-dihydropyridine-3-carboxylic acid hydrochloride]	12.5 to 150 µg/mL	12.5 to 150 µg/mL	12.5 to 150 µg/mL	12.5 to 150 µg/mL	12.5 to 150 µg/mL	12.5 to 150 µg/mL	12.5 to 150 µg/mL	12.5 to 150 µg/mL	12.5 to 150 µg/mL
CCc1cc(C(=O)O)c(=O)[nH]c1-c1ccc2nccn2c1.Cl [Cpd 51, 5-ethyl-6-(imidazo[1,2-a]pyridin-6-yl)-2-oxo-1,2-dihydropyridine-3-carboxylic acid hydrochloride]	12.5 to 150 µg/mL	12.5 to 150 µg/mL	12.5 to 150 µg/mL	12.5 to 150 µg/mL	12.5 to 150 µg/mL	12.5 to 150 µg/mL	12.5 to 150 µg/mL	12.5 to 150 µg/mL	12.5 to 150 µg/mL
CCc1cc(C(=O)O)c(=O)[nH]c1-c1cnc2c(c1)ncn2C [Cpd 52, 5-ethyl-6-(3-methyl-3H-imidazo[4,5-b]pyridin-6-yl)-2-oxo-1,2-dihydropyridine-3-carboxylic acid]	12.5 to 150 µg/mL (≈ 41.9 to 503 µM)	12.5 to 150 µg/mL (≈ 41.9 to 503 µM)	12.5 to 150 µg/mL (≈ 41.9 to 503 µM)	12.5 to 150 µg/mL (≈ 41.9 to 503 µM)	12.5 to 150 µg/mL (≈ 41.9 to 503 µM)	12.5 to 150 µg/mL (≈ 41.9 to 503 µM)	12.5 to 150 µg/mL (≈ 41.9 to 503 µM)	12.5 to 150 µg/mL (≈ 41.9 to 503 µM)	12.5 to 150 µg/mL (≈ 41.9 to 503 µM)
CCc1cc(C(=O)O)c(=O)[nH]c1-c1ccc2c(c1)ncn2C [Cpd 53, 5-ethyl-6-(1-methyl-1H-benzo[d]imidazol-5-yl)-2-oxo-1,2-dihydropyridine-3-carboxylic acid]	3.5 to 12.5 µg/mL (≈ 11.8 to 42 µM)	12.5 to 150 µg/mL (≈ 42 to 505 µM)	12.5 to 150 µg/mL (≈ 42 to 505 µM)	12.5 to 150 µg/mL (≈ 42 to 505 µM)	12.5 to 150 µg/mL (≈ 42 to 505 µM)	12.5 to 150 µg/mL (≈ 42 to 505 µM)	12.5 to 150 µg/mL (≈ 42 to 505 µM)	12.5 to 150 µg/mL (≈ 42 to 505 µM)	12.5 to 150 µg/mL (≈ 42 to 505 µM)
